From patent US20070179143A1 (priority 2003, published 2007)

What was measured:
[1] = system: human lung cancer cell line NCI-H460; assay: Inhibiting effect on tumor growth, NCI-H460 xenografted nude mice
Protocol: Samples for the experiment were stored in a refrigerator all the time. […] The prepared sample is subject to be precipitated, so that tip sonication was performed right before the administration to disperse it well.
7 week-old female S.P.F. BALB/c nude mice, provided by Charles River Co., Japan, were used as test animals. The test animals were adapted in a Hepa-filter room over a week before the test. The temperature was 21±2° C., humidity was 55±5% and 12-hour light and dark cycle was automatically repeated in that lab. Solid feed (Cheiluedang) was sterilized by radioactive rays and drinking water was also sterilized by autoclave. Feed and water were taken by the animal freely. Cancer cell line used in this experiment was NCI-H460 (human lung tumor cell line) provided by Korea Research Institute of Bioscience and Biotechnology.
The tumor cell line, stored in liquid nitrogen, was thawed and cultured in a 37° C., 5% CO2 incubator for a required time. Upon completing the culture, all the cells were recovered and cell concentration of the culture fluid was adjusted using PBS to 3×10^7 cells/ml. The adjusted cell culture solution was injected hypodermically into armpit between right shoulder girdle and chest wall by 0.3 ml per mouse. From the next day of grafting, NCI-H460 xenografted nude mice were administered intraperitoneal everyday with the sample solution by 0.2 ml/20 g of weight, once a day.
After the grafting of tumor cells, the volume of a tumor in each individual was measured in three dimensions by using a vernier caliper, which was represented in the below <Mathematical Formula 2>. Tumor volume=(length×width×height)/2 <Mathematical Formula 2>
Body weight changes of animal were measured three times a week. Each xenografted nude mouse was sacrificed to separate a tumor, which was then weighed.

SK-OV-3 = assay: Cytotoxicity test to cancer cell lines (SRB method), SK-OV-3; assay type: cell-based; settings: Homo sapiens, SK-OV-3, 48 h, read-out: Cytotoxicity ED50 SK-OV-3
SK-MEL-2 = assay: Cytotoxicity test to cancer cell lines (SRB method), SK-MEL-2; assay type: cell-based; settings: Homo sapiens, SK-MEL-2, 48 h, read-out: Cytotoxicity ED50 SK-MEL-2
in vivo = settings: both, ICR, mouse, in vivo
Protocol: (§1) 5-week-old ICR mice having the weight of 25-35 g (SPF, SLC Co. Japan) were used as test animals. A pair of female and male of the mice was given for the test of each compound. Group T2, T3, T4 and T5 were arranged (10 animals per group) for the test of acute toxicity of the compound prepared in the Example 12. […] Control group (T1) was administered with only a solvent without the compound of the Example 12.
(§2) For comparison, colchicine was injected in the test animals by the same method as described in the above. The group treated with colchicine was composed of 6 mice.
(§3) Taxol produced by Bristol Myers Sqibb Co. was also used for comparison, and the injection and the test of acute toxicity were performed by the same method as described in the above.

ICR mice = assay: in vivo; settings: for Death Total: ICR mice, 7 days, deaths/animals
Protocol: as §1, §2, §3

HCT-15 = assay: Cytotoxicity test to cancer cell lines (SRB method), HCT-15; settings: Homo sapiens, HCT-15, 48 h, read-out: Cytotoxicity ED50 HCT15
Protocol: (§4) Cytotoxicity to A549 (Korea Research Institute of Chemical Technology), SK-OV-3 (Korea Research Institute of Chemical Technology), SK-MEL-2 (Korea Research Institute of Chemical Technology), HCT-15 (Korea Research Institute of Chemical Technology) and MCF7 (Korean Cell Line Bank, Seoul National University School of medicine) cells was measured by Sulforhodamin-B (SRB) method (1989, National Cancer Institute (NCI)) which was developed for the measurement of in vitro anticancer activity of a drug. Cells were separated using 0.25% trypsin-EDTA solution, leading to the preparation of a cell suspension by 5×10^318 2×10^4 cells/well. Then, the suspension was distributed into a 96 well plate by 100 μl/well, which was cultured in a 37° C., 5% CO2 incubator for 24 hours. Compounds prepared in examples of the present invention were used as a sample. Precisely, the compound was dissolved in dimethylsulfoxide and diluted with RPMI 1640 medium before being used as a sample. The final concentration of the sample used varied ranging 1 μM˜0.00001 μM. The medium was removed from the 96 well plate and then diluted sample solution was added by 100 μl/well, followed by further culture in a 37° C., 5% CO2 incubator for 48 hours. Tz (time zero) plate was collected from the point of adding the sample. Upon completing the culture, the medium was removed from each well along with Tz plate, then 10% trichloroacetic acid (TCA) was added by 100 μl/well. The plate was left at 4° C. for 1 hour to let cells be fixed on the floor of the plate. After cells were fixed completely, the plate was washed with water 5-6 times to remove the remaining trichloroacetic acid solution completely and moisture was completely dried at room temperature. 0.4% Sulforhodamine-B was dissolved in 1% acetic acid solution to prepare a staining solution. Cells were stained for 30 minutes with a dye added by 100 μl to each well of the completely dried plate. Then, the plate was washed with 1% acetic acid solution 5-6 times to remove sulforhodamine-B remained uncombined with cells. Then, the plate was dried at room temperature. 10 mM Tris solution was added by 100 μ/well thereto to dissolve the dye, and optical density (OD) was measured at 520 nm with a micro plate reader.
(§5) ED50 (concentration that inhibits cancer cell growth 50%, 5.0% effective dose, nM/ml) of the sample to cancer cell was calculated as follows. OD value at the point of beginning the culture with the sample was determined as Tz (time zero) value. OD value of a well to be cultured without the sample was determined as a control value (C). OD value of a well pretreated with the sample was determined as experimental value (T). After calculating Tz, C and T, cytotoxicity of the sample was measured by the below <Mathematical Formula 1>. T≦Tz, (T−Tz)/(C−Tz)×100 T>Tz, (T−Tz)/Tz×10,0 <Mathematical Formula 1>
(§6) ED50, the concentration that can inhibit cancer cell growth by 50%, was calculated by using a regression analysis of lotus program based on the degree of cytotoxicity obtained by the <Mathematical Formula 1>.

MCF7 = assay: Cytotoxicity test to cancer cell lines (SRB method), MCF7; settings: read-out: Cytotoxicity ED50 MCF-7, MCF-7, 48 hours
Protocol: as §4, §5, §6

HUVEC cells = assay: Capillary-like tube formation assay; assay type: cell-based; settings: HUVEC on matrigel, 24 hours
Protocol: Matrigel used in this experiment was a product of BioCoat. Matrigel was thawed in a refrigerator for 24 hours before use. Thawing matrigel, 96 well plate and yellow tip were put on ice. Then, matrigel was distributed into each well of the plate by 40 μl. The polymerization of the plate was performed in a 37° C. incubator for 30 minutes. Each well of the plate was inoculated with 180 μl of HUVEC cell solution (2×10^4 cells/m;) along with 20 μl of the compound of the Example 12 in serum-free media (0.3, 1,3, 10 and 30 μg/ml), followed by further culture for 24 hours.
Tube formation was observed under a microscope to investigate inhibition activity of angiogenesis.
Fumagilin and doxorubicin were used as a positive control.

A549 = assay: Cytotoxicity test to cancer cell lines (SRB method), A549; settings: Homo sapiens, A549, 48 h, read-out: Cytotoxicity ED50 A549
Protocol: as §4, §5, §6

[2] = Body weight change of NCI-H460 xenografted nude mice; assay type: in vivo, BALB/c nude mouse
[3] = 1 mg/kg intraperitoneal once a day
[4] = 3 mg/kg intraperitoneal once a day
[5] = 10 mg/kg intraperitoneal once a day

## COc1cc2c(c(OC)c1OC)-c1ccc(SC)c(=O)cc1[C@@H](NC(=O)c1cc(F)cc(CO[N+](=O)[O-])c1)CC2 [Example 12, 3-fluoro-5-nitrooxymethyl-N-[(7S)-1,2,3-trimethoxy-10-methylsulfanyl-9-oxo-5,6,7,9-tetrahydro-benzo[a]heptalen-7-yl]-benzamide]
[1]; [3]
  Tumor volume Day 0: 0.0 ± 0.0
  Tumor volume Day 4: 20.7 ± 3.1
  Tumor volume Day 7: 49.2 ± 12.2
  Tumor volume Day 9: 78.1 ± 13.0
  Tumor volume Day 11: 146.5 ± 8.8
  Tumor Weight Day 14: 950.9 ± 174.8 mg
  Tumor volume Day 14: 299.3 ± 41.5
[1]; [4]
  Tumor volume Day 0: 0.0 ± 0.0
  Tumor volume Day 4: 16.9 ± 5.1
  Tumor volume Day 7: 31.2 ± 11.7
  Tumor volume Day 9: 49.7 ± 15.8
  Tumor volume Day 11: 96.1 ± 26.1
  Tumor Weight Day 14: 714.5 ± 103.8 mg
  Tumor volume Day 14: 206.8 ± 48.0
[1]; [5]
  Tumor volume Day 0: 0.0 ± 0.0
  Tumor volume Day 4: 16.1 ± 6.7
  Tumor volume Day 7: 24.6 ± 9.8
  Tumor volume Day 9: 35.2 ± 12.9
  Tumor volume Day 11: 69.4 ± 26.9
  Tumor Weight Day 14: 390.9 ± 0 mg
  Tumor volume Day 14: 103.0 ± 0
[1]; comparing to solvent only (V.C-1, V.C-2) or positive control (taxol, adriamycin)
  size and weight of a tumor (in words): remarkably decreased
SK-OV-3
  EC50: 0.27 nM
SK-MEL-2
  EC50: 0.11 nM
In vivo
  LD50: 60 mg/kg
ICR mice; 30 mg/kg into the abdominal cavity
  Death Total: 0/10
ICR mice; 40 mg/kg into the abdominal cavity
  Death Total: 0/10
ICR mice; 50 mg/kg into the abdominal cavity
  Death Total: 0/10
ICR mice; 60 mg/kg into the abdominal cavity
  Death Total: 0/10
ICR mice; ratio of LD50
  times as weak toxicity as that of colchicine: 30 times
HCT-15
  EC50: 0.05 nM
MCF7
  EC50: 0.03 nM
HUVEC cells
  dosage that totally inhibited angiogenesis: over 10 μg/ml
HUVEC cells; as good effect as fumagilin at 10 μg/ml
  dosage with angiogenesis inhibition activity: over 0.3 μg/ml
A549
  EC50: 0.05 nM
[2]; [3]
  Body weight Change Day 1: 100.0 ± 0.0%
  Body weight Change Day 3: 105.0 ± 1.4%
  Body weight Change Day 7: 104.2 ± 5.3%
  Body weight Change Day 9: 99.6 ± 4.4 %
  Body weight Change Day 11: 97.5 ± 3.6 %
  Body weight Change Day 14: 98.3 ± 3.2 %
[2]; [4]
  Body weight Change Day 1: 100.0 ± 0.0%
  Body weight Change Day 3: 102.8 ± 2.0%
  Body weight Change Day 7: 101.8 ± 4.2 %
  Body weight Change Day 9: 99.3 ± 3.3 %
  Body weight Change Day 11: 99.1 ± 2.8 %
  Body weight Change Day 14: 94.5 ± 3.9 %
[2]; [5]
  Body weight Change Day 1: 100.0 ± 0.0%
  Body weight Change Day 3: 103.9 ± 0.9%
  Body weight Change Day 7: 92.2 ± 3.5 %
  Body weight Change Day 9: 89.4 ± 2.0 %
  Body weight Change Day 11: 92.3 ± 2.9 %
  Body weight Change Day 14: 93.4 ± 0%
[2]; comparing to solvent only or positive control
  decrease of the weight of the mouse: about 10%
